The subject of data set [1] is in-plasma uric acid value. Kind of data set: In vivo test: in-plasma uric acid value-inhibition ratio after single oral administration to mouse. Conditions: in-plasma uric acid inhibition ratio as activity value relative to TMX-67 (0.3 mg/kg); unfasted ICR mouse, single oral 0.3 mg/kg or 3 mg/kg, blood one hour after administration. Here is the method:
The xanthine oxidase inhibiting action was further confirmed in viva tests by measuring the uric acid concentration in a plasma obtained from mouse into which the compound of the invention had been orally administered. See Example 27 and Tables 11 and 12. The test compound suspended in 1% methylcellulose solution in an amount of 0.3 mg/kg or 3 mg/kg was administered to unfasted ICR mouse (7 W) by forced single oral administration. The blood was collected from main artery from the mouse under etherization after one hour from the administration. The plasma was separated from the collected blood in the conventional manner. The plasma was then subjected to measurement of uric acid value by the enzyme method by means of an automatic analytical apparatus ([…]), to obtain an in-plasma uric acid value-inhibition ratio in the test sample-administered group as compared with a ratio obtained in the normal group. Based on the obtained in-plasma uric acid inhibition ratio, activity values (%) relative to activity values obtained in the simultaneously conducted tests using TMX-67 (0.3 mg/kg).

Data set [2] deals with T1, Cow milk Xanthine Oxidase (Bos taurus, UniProt P80457).
T1 construct: Cow milk Xanthine Oxidase (Roche); purchased Roche; host or cells: cow milk
T1 sequence (P80457 whole entry): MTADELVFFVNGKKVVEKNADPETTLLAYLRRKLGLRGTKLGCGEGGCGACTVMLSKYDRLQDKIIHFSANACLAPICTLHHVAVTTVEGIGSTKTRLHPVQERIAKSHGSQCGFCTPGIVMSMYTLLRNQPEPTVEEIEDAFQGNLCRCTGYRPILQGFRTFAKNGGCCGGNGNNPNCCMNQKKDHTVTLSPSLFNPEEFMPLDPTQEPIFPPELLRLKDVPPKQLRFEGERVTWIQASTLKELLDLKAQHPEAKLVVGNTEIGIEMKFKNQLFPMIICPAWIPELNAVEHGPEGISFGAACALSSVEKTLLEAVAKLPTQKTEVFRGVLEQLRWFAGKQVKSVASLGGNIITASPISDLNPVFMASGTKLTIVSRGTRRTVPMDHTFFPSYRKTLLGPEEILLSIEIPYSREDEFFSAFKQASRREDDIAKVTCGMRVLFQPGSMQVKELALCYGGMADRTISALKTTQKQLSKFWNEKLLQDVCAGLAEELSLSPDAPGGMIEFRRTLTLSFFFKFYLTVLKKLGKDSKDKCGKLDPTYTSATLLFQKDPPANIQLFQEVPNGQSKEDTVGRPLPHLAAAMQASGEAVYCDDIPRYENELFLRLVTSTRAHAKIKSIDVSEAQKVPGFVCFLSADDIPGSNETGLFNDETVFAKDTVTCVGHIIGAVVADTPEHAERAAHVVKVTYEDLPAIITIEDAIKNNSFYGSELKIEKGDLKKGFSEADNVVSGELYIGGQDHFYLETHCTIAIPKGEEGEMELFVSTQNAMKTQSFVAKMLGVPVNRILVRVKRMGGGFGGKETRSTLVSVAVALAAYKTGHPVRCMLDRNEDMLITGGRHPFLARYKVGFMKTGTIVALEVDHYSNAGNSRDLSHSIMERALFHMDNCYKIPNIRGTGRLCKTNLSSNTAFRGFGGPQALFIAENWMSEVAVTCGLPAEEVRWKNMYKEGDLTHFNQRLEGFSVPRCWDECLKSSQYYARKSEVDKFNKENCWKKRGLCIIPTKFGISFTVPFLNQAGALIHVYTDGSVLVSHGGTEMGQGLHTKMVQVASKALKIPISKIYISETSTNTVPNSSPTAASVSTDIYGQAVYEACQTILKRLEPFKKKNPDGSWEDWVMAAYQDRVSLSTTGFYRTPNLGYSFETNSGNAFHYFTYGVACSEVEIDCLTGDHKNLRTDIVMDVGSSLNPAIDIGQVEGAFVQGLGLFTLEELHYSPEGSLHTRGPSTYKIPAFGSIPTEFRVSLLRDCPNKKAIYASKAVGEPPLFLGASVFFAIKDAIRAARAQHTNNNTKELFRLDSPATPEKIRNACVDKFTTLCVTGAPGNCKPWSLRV
Description: In vitro xanthine oxidase inhibition (oxidation of xanthine, absorbance at OD 290 nm). It is filed as biochemical. The following applies: xanthine 250 μM, 50 mM phosphate buffer pH 7.5, 30° C. 10 minutes. Here is the method:
The xanthine oxidase inhibiting action (in vitro test) of the compound of the invention was confirmed by measuring inhibition of oxidation of xanthine by xanthine oxidase, as described in Example 26. As is clear from Tables 11 and 12, the compounds of the invention show excellent xanthine oxidase inhibiting action.
The test compound was dissolved in dimethylsulfoxide and diluted with 50 mM phosphate buffer (pH 7.5), to give a solution of a predetermined concentration.
125 μL of each of the solutions of the test compound having different concentrations was added to 1 mL of a solution of Xanthine (SIGMA, 250 μM) in the 50 mM phosphor buffer (pH 7.5). The mixture was then pre-incubated at 30° C. for 5 min. Subsequently, to the pre-incubated mixture was added 125 μL of Cow milk Xanthine Oxidase (Roche) diluted with the 50 mM phosphate buffer (pH 7.5) to 70 mU/mL, and the mixture was subjected to reaction at 30° C. for 10 minutes. Then, 1N hydrochloric acid (200 μL) was added to the reaction mixture to terminate the reaction. Subsequently, absorbance at OD 290 nm was measured by means of a spectrophotometer (Shimadzu UV-160A), to obtain a inhibition ratio. The measured inhibition ration was used to obtain IC50.
The inhibition ratio was calculated according to the following formula:
Inhibition ratio (%)=[1−(B−C)/(A−C)]×100 • A: absorbance of control • B: absorbance measured on a sample containing test compound • C: absorbance of blank

The values that follow come from US20090149452A1, “XANTHINE OXIDASE INHIBITOR” (NIPPON CHEMIPHAR CO., LTD., priority 2005, published 2009).

What is called IC50 is the point on the concentration scale where inhibition reaches its midpoint. Low values mean greater potency in that assay, high ones weaker potency in that assay. What is called melting point is the temperature, or range, at which the solid turns liquid. `N#Cc1cc(-c2nc3cncnc3s2)ccc1Oc1cccc(F)c1` [Example 6, 2-[3-Cyano-4-(3-fluorophenoxy)phenyl]-thiazolo[5,4-d]pyrimidine]: the melting point lay in the range of 189 to 190 °C. In addition, the “In Vivo (%) TMX-67 (0.3 mg/kg)” value in data set [1] is reported as 127%. The molecule further showed a concentration for half-maximal inhibition (IC50) in data set [2] of 389 nM.
The like results for `C=CCOc1ccc(-c2nc3cncnc3s2)cc1C#N` [Example 12, 2-(4-Allyloxy-3-cyanophenyl)thiazolo[5,4-d]-pyrimidine] were, in that order, 202.6 to 207.6 °C, 52% and 310 nM.
Regarding `N#Cc1cc(-c2nc3cncnc3s2)ccc1Oc1cccc(Cl)c1` [Example 15, 2-[4-(3-Chlorophenyloxy)-3-cyanophenyl]-thiazolo[5,4-d]pyrimidine], the melting point lay within 171 to 173 °C. The “In Vivo (%) TMX-67 (0.3 mg/kg)” value in data set [1] came to 87%.
The like results for `CN1CCN(c2ccc(-c3nc4cncnc4s3)cc2C#N)CC1` [Example 14, 2-[3-Cyano-4-(4-methyl-1-piperazinyl)phenyl]thiazolo[5,4-d]pyrimidine] were, in that order, 163 to 165 °C (dec.) and 43%.
With `N#Cc1cc(-c2nc3cncnc3s2)ccc1Sc1ccccc1F` [Example 10, 2-[3-Cyano-4-(2-fluorophenylthio)phenyl]-thiazolo[5,4-d]pyrimidine], the melting point was in the range of 178 to 180 °C. Also, the “In Vivo (%) TMX-67 (0.3 mg/kg)” value in data set [1] stood at 115%. The same molecule registered an IC50 in data set [2] of 127 nM.
Molecule `N#Cc1cc(-c2nc3cncnc3s2)ccc1Oc1ccc(Cl)cc1` [Example 9, 2-[4-(4-Chlorophenyloxy)-3-cyanophenyl]-thiazolo[5,4-d]pyrimidine] gave a melting point of 179 to 180 °C. The “In Vivo (%) TMX-67 (0.3 mg/kg)” value in data set [1] turned out to be 120%. The molecule further showed an IC50 in data set [2] of 298 nM.
Turning to `N#Cc1cc(-c2nc3cncnc3o2)ccc1Oc1ccc(F)cc1` [Example 18, 2-[3-Cyano-4-(4-fluorophenoxy)phenyl]oxazolo[5,4-d]-pyrimidine], the “In Vivo (%) TMX-67 (0.3 mg/kg)” value in data set [1] is 71%.
As to `N#Cc1cc(-c2nc3cncnc3s2)ccc1Oc1ccc(F)cc1` [Example 1, 2-[4-(4-fluorophenoxy)-3-cyanophenyl]thiazolo[5,4-d]pyrimidine], the melting point lay in the range of 175 to 177 °C. Moreover, the “In Vivo (%) TMX-67 (0.3 mg/kg)” value in data set [1] was determined as 132%. In data set [2], this molecule displayed an IC50 of 280 nM.
`Cl.N#Cc1cc(-c2nc3cncnc3s2)ccc1Oc1cccnc1` [Example 21, 2-[3-Cyano-4-(3-pyridyloxy)phenyl]thiazolo-[5,4-d]pyrimidine hydrochloride]: the melting point is 204 to 206 °C. Also, the “In Vivo (%) TMX-67 (0.3 mg/kg)” value in data set [1] is listed as 68%.
The molecule `N#Cc1cc(-c2nc3cncnc3[nH]2)ccc1Oc1ccc(F)cc1` [Example 4, 8-[3-Cyano-4-(4-fluorophenoxy)phenyl]-9H-purine] returned a melting point above 250 °C. The “In Vivo (%) TMX-67 (0.3 mg/kg)” value in data set [1] was found to be 33%. The molecule also gave an IC50 in data set [2] of 33 nM.
`N#Cc1cc(-c2nc3cncnc3s2)ccc1N1CCOCC1` [Example 13, 2-(3-Cyano-4-morpholin-4-ylphenyl)thiazolo-[5,4-d]pyrimidine]: the melting point was 232 to 234 °C (dec.). For the same molecule, the “In Vivo (%) TMX-67 (0.3 mg/kg)” value in data set [1] is given as 40%.
The like results for `N#Cc1cc(-c2nc3cncnc3s2)ccc1N1CCSCC1` [Example 16, 2-[3-Cyano-4-(thiomorpholin-4-yl)phenyl]-thiazolo[5,4-d]pyrimidine] were, in that order, 170 to 175 °C (dec.) and 34%.
For `N#Cc1cc(-c2nc3cncnc3s2)ccc1Sc1ccccc1` [Example 11, 2-(3-Cyano-4-phenylthiophenyl)thiazolo[5,4-d]pyrimidine], the melting point was 173 to 176 °C. Further, in data set [1], the “In Vivo (%) TMX-67 (0.3 mg/kg)” value amounted to 110%. In data set [2], this molecule displayed an IC50 of 196 nM.
Consider `N#Cc1cc(-c2nc3cncnc3s2)ccc1Oc1ccccc1Cl` [Example 17, 2-[4-(2-Chlorophenyloxy)-3-cyanophenyl]thiazolo[5,4-d]pyrimidine], for which the melting point is 209 to 211 °C. Further, in data set [1], the “In Vivo (%) TMX-67 (0.3 mg/kg)” value is 86%.
In the case of `N#Cc1cc(-c2nc3cncnc3s2)ccc1Oc1ccc(O)cc1` [Example 22, 2-[3-Cyano-4-(4-hydroxyphenoxy)phenyl]thiazolo[5,4-d]pyrimidine], the melting point is above 250 °C. The same molecule came in with a concentration for half-maximal inhibition (IC50) in data set [2] of 72 nM.
The molecule `N#Cc1cc(-c2nc3cncnc3s2)ccc1Sc1ccc(F)cc1` [Example 7, 2-[3-Cyano-4-(4-fluorophenylthio)phenyl]-thiazolo[5,4-d]pyrimidine] came in with a melting point of 190 to 195 °C. Moreover, the “In Vivo (%) TMX-67 (0.3 mg/kg)” value in data set [1] came to 109%. Besides, the IC50 in data set [2] is 239 nM.
Regarding `N#Cc1cc(-c2nc3cncnc3s2)ccc1Sc1cccc(F)c1` [Example 19, 2-[3-Cyano-4-(3-fluorophenylthio)phenyl]-thiazolo[5,4-d]pyrimidine], the melting point was in the range of 189 to 190 °C. For the same molecule, in data set [1], the “In Vivo (%) TMX-67 (0.3 mg/kg)” value is reported as 171%.
Molecule `N#Cc1cc(-c2nc3cncnc3s2)ccc1Oc1ccccc1` [Example 2, 2-[3-Cyano-4-phenoxyphenyl)thiazolo[5,4-d]-pyrimidine] came in with a melting point of 154 to 156 °C. Moreover, in data set [1], the “In Vivo (%) TMX-67 (0.3 mg/kg)” value stood at 114%. In addition, the IC50 in data set [2] is 139 nM.
The like results for `N#Cc1cc(-c2nc3cncnc3s2)ccc1Oc1ccccc1F` [Example 5, 2-[3-Cyano-4-(2-fluorophenoxy)phenyl]-thiazolo[5,4-d]pyrimidine] were, in that order, 195 to 196 °C, 141% and 103 nM.
Consider `N#Cc1cc(-c2nc3cncnc3s2)ccc1Oc1ccc(O)cc1.[K]` [Example 25, 2-[3-Cyano-4-(4-hydroxyphenoxy)phenyl]thiazolo[5,4-d]pyrimidine potassium salt], for which the “In Vivo (%) TMX-67 (0.3 mg/kg)” value in data set [1] stood at 35%.
The molecule `N#Cc1cc(-c2nc3cncnc3s2)ccc1Oc1cccnc1` [Example 3, 2-[3-Cyano-4-(3-pyridyloxy)phenyl]thiazolo-[5,4-d]pyrimidine] gave a melting point of 210 to 212 °C. Besides, the “In Vivo (%) TMX-67 (0.3 mg/kg)” value in data set [1] came out at 90%. This molecule also had an IC50 in data set [2] of 273 nM.
`N#Cc1cc(-c2nc3cncnc3s2)ccc1Oc1ccccc1N` [Example 20, 2-[4-(2-Aminophenoxy)-3-cyanophenyl]thiazolo[5,4-d]-pyrimidine]: the melting point was 256 to 259 °C (dec.). In data set [2], half-maximal inhibition (IC50) required 58 nM.
On to `N#Cc1cc(-c2nc3cncnc3s2)ccc1Oc1ccccc1O` [Example 8, 2-[3-Cyano-4-(2-hydroxyphenoxy)phenyl]thiazolo[5,4-d]pyrimidine], for which the melting point fell in the range of 255 to 256 °C. In addition, the “In Vivo (%) TMX-67 (0.3 mg/kg)” value in data set [1] was 52%. This molecule also came in with an IC50 in data set [2] of 103 nM.
